According to ChEMBL document CHEMBL1909046, “DrugMatrix in vitro pharmacology data”:

Experiments:
[1] = biological target: T1, Vasoactive intestinal polypeptide receptor 1 (Homo sapiens, UniProt P32241); type: cell membranes, Membrane; conditions: ht-29; note: in other assays of this panel Not Active means under 50% inhibition at 10 µM
T1 sequence (P32241 whole entry): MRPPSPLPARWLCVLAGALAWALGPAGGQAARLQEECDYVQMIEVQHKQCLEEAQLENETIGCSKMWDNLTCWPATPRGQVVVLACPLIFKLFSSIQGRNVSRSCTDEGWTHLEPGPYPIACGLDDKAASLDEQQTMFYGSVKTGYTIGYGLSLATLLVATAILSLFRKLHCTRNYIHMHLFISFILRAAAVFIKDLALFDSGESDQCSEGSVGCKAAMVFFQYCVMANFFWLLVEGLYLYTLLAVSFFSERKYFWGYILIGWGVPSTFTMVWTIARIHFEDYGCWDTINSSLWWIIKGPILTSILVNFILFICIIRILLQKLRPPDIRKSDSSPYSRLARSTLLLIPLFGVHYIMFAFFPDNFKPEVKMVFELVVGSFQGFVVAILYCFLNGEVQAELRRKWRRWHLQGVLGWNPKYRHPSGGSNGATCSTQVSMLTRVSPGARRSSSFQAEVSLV

Cytochrome P450 2D6 = Cytochrome P450 2D6 (Homo sapiens, UniProt P10635); conditions: bti-tn-5b1-4; note: in other assays of this panel Not Active means under 50% inhibition at 10 µM
Adenosine receptor A3 = biological target: T2, Adenosine receptor A3 (Homo sapiens, UniProt P0DMS8); type: cell membranes, CHO-K1, Membrane; conditions: cho-k1;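 note: radioligand binding assay with AB-MECA serving as the labeled ligand; in other assays of this panel Not Active means under 50% inhibition at 10 µM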
T2 sequence (P0DMS8 whole entry): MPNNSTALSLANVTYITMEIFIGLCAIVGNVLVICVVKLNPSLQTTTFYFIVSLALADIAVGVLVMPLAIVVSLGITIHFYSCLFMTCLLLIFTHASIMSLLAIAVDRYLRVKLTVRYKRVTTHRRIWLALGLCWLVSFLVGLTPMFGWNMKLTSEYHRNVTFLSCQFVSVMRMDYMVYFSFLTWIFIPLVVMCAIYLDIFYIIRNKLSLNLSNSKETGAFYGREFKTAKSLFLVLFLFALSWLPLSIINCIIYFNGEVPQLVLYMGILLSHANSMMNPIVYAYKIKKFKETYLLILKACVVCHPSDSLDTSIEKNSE

[2] = biological target: T3, C-C chemokine receptor type 4 (Homo sapiens, UniProt P51679); type: cell membranes, Membrane; conditions: chem-1; note: in other assays of this panel Not Active means under 50% inhibition at 10 µM
T3 sequence (P51679 whole entry): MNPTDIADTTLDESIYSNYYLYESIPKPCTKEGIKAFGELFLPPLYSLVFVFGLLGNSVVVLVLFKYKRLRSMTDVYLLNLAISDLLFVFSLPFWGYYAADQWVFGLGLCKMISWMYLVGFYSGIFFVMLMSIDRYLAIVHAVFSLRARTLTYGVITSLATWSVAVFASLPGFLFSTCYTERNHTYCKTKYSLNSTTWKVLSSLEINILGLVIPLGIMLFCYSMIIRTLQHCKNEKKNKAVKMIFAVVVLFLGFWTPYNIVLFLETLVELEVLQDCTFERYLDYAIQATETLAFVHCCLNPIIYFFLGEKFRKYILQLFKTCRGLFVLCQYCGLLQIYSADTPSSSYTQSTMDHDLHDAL

Mu-type opioid receptor = Mu-type opioid receptor (Homo sapiens, UniProt P35372); assay: DRUGMATRIX: Opiate mu (OP3, MOP) radioligand binding (ligand: [3H] Diprenorphine); type: cell membranes, CHO-K1, Membrane; conditions: cho-k1; Not Active = under 50% inhibition at 10 µM
Estrogen receptor beta = Estrogen receptor beta (Homo sapiens, UniProt Q92731); conditions: sf9; note: in other assays of this panel Not Active means under 50% inhibition at 10 µM
D(4) dopamine receptor = biological target: T4, D(4) dopamine receptor (Homo sapiens, UniProt P21917); assay: DRUGMATRIX: Dopamine D4.2 radioligand binding (ligand: [3H] Spiperone); type: cell membranes, CHO-K1, Membrane; conditions: cho-k1; Not Active = under 50% inhibition at 10 µM
T4 sequence (P21917 whole entry): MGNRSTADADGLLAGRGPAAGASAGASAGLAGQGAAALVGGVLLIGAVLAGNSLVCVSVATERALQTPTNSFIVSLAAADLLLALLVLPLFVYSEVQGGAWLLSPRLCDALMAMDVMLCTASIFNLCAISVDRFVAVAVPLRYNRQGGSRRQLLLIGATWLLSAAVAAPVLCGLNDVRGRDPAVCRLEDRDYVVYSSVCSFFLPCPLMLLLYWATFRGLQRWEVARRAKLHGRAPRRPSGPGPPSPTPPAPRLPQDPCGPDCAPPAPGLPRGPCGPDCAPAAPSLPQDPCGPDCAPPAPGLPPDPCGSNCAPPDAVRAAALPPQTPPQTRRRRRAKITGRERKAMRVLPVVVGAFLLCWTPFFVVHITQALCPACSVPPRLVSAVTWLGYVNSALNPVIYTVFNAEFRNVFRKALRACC

[3] = biological target: Delta-type opioid receptor (Homo sapiens, UniProt P41143); type: cell membranes, HEK293, Membrane; conditions: hek293; note: in other assays of this panel Not Active means under 50% inhibition at 10 µM
[4] = DRUGMATRIX: Leukotriene, BLT (LTB4) radioligand binding (ligand: [3H]LTB4); type: cell membranes, Membrane; conditions: u-937; Not Active = under 50% inhibition at 10 µM
[5] = biological target: Beta-3 adrenergic receptor (Homo sapiens, UniProt P13945); assay: DRUGMATRIX: Adrenergic beta3 radioligand binding (ligand: [125I] Cyanopindolol); type: cell membranes, HEK293, Membrane; conditions: hek293; Not Active = under 50% inhibition at 10 µM
[6] = biological target: T5, Cholecystokinin receptor type A (Homo sapiens, UniProt P32238); type: cell membranes, Membrane; conditions: 1321-n1; note: in other assays of this panel Not Active means under 50% inhibition at 10 µM
T5 sequence (P32238 whole entry): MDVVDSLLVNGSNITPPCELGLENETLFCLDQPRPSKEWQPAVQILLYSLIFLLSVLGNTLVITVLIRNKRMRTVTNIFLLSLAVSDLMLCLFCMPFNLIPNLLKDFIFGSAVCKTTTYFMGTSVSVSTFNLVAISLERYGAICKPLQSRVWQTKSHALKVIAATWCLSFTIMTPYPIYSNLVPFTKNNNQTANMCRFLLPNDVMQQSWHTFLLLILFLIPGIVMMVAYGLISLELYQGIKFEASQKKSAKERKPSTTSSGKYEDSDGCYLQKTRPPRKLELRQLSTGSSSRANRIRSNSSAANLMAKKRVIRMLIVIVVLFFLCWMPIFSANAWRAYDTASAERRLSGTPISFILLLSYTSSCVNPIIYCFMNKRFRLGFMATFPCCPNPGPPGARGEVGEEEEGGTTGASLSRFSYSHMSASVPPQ

[7] = DRUGMATRIX: Interleukin IL-1 radioligand binding (ligand: [125I] interleukin 1beta); type: cell membranes, Membrane; conditions: nih3t3; Not Active = under 50% inhibition at 10 µM
Acetylcholinesterase = Acetylcholinesterase (Homo sapiens, UniProt P22303); assay: DRUGMATRIX: Acetylcholinesterase enzyme inhibition (substrate: acetylthiocholine); type: cell-based, HEK293; conditions: hek293; Not Active = under 50% inhibition at 10 µM
Acetylcholinesterase, sequence (P22303 whole entry): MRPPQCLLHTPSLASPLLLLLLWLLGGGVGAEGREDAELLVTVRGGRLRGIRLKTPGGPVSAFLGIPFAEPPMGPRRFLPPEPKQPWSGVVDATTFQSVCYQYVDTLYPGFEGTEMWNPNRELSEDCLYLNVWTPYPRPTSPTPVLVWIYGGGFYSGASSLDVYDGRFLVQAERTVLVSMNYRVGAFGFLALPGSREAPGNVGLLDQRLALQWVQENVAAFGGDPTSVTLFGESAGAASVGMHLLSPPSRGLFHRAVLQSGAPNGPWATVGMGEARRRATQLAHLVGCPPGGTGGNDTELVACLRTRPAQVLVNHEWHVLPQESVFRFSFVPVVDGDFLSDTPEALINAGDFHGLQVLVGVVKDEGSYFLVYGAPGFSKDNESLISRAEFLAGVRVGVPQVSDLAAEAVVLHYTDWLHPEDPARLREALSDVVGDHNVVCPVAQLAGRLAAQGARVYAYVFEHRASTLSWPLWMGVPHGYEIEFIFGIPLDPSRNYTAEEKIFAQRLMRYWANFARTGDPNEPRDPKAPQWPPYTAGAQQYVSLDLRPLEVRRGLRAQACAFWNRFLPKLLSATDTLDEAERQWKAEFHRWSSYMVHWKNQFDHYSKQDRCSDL

Mu-type opioid receptor, sequence (P35372 whole entry): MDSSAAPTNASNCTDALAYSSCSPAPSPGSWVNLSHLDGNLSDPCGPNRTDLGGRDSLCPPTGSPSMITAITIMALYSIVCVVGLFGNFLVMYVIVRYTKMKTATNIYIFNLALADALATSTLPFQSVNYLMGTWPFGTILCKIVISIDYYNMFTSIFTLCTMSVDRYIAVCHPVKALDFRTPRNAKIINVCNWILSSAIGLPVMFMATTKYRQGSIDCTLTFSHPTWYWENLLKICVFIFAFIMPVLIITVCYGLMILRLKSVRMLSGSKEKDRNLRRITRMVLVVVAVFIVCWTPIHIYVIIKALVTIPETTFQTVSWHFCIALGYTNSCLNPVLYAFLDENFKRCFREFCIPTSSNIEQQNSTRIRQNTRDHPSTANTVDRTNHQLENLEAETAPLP
Cytochrome P450 2D6, sequence (P10635 whole entry): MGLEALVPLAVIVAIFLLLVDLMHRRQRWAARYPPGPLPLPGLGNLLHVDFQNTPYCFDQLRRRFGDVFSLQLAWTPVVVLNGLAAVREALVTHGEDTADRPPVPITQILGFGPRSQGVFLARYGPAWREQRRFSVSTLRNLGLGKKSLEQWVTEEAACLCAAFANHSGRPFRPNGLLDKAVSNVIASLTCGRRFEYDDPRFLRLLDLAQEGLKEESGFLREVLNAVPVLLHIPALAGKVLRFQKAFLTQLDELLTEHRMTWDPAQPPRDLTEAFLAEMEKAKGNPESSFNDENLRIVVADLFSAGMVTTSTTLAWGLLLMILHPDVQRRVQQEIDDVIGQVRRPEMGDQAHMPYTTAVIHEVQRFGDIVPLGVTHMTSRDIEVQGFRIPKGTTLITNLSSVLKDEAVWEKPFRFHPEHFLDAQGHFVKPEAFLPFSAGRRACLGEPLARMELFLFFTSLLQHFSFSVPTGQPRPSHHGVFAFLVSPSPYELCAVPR
Beta-3 adrenergic receptor, sequence (P13945 whole entry): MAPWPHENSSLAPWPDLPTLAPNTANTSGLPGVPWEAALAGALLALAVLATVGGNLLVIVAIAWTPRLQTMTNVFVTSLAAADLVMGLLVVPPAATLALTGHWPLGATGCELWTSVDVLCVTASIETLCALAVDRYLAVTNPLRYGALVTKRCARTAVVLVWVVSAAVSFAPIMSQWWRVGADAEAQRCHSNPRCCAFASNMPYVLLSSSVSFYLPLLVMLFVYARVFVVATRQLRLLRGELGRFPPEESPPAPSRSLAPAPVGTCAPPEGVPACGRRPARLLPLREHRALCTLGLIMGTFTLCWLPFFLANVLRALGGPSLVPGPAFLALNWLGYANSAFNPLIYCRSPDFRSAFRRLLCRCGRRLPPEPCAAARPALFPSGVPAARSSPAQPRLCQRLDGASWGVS
Estrogen receptor beta, sequence (Q92731 whole entry): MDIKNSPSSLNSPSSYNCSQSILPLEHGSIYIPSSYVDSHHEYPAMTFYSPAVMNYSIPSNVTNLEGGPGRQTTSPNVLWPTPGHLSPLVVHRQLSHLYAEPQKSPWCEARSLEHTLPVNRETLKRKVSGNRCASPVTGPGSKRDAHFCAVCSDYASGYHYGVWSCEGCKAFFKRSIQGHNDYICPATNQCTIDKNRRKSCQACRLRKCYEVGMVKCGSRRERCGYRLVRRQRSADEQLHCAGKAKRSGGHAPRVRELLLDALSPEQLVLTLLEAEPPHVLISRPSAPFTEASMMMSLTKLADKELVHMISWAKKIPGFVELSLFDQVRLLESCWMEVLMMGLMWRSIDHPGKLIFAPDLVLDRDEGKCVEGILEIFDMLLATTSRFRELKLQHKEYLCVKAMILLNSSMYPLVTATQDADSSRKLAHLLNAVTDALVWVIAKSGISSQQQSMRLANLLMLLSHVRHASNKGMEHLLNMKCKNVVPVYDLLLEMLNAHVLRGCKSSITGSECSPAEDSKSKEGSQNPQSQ
Delta-type opioid receptor, sequence (P41143 whole entry): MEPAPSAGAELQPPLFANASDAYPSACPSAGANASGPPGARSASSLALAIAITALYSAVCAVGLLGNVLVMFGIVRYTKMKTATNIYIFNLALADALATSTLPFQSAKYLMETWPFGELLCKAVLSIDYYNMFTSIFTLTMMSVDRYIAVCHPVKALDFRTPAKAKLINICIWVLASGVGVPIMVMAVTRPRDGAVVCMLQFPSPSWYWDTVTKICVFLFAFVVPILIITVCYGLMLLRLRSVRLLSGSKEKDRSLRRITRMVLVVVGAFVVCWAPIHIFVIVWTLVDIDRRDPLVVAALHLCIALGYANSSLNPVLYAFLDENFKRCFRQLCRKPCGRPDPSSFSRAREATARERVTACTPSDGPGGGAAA

O=c1cc(-c2ccccc2)oc2c1ccc1ccccc12 [ALPHA-NAPHTHOFLAVONE]
Not Active: IC50 [1] | IC50 (Cytochrome P450 2D6) | Ki (Cytochrome P450 2D6) | IC50 (Adenosine receptor A3) | IC50 [2] | IC50 (Mu-type opioid receptor) | IC50 (Estrogen receptor beta) | IC50 (D(4) dopamine receptor) | IC50 [3] | IC50 [4] | Ki [4] | IC50 [5] | IC50 [6] | IC50 [7] | Ki [7] | IC50 (Acetylcholinesterase)

CC(=O)OCC(=O)[C@@]1(OC(C)=O)[C@@H](C)C[C@H]2[C@@H]3C[C@H](F)C4=CC(=O)C=C[C@]4(C)[C@@]3(F)[C@@H](O)C[C@@]21C [DIFLORASONE DIACETATE]
Not Active: IC50 [1] | IC50 (Cytochrome P450 2D6) | Ki (Cytochrome P450 2D6) | IC50 (Adenosine receptor A3) | IC50 [2] | IC50 (Mu-type opioid receptor) | IC50 (Estrogen receptor beta) | IC50 (D(4) dopamine receptor) | IC50 [3] | IC50 [4] | Ki [4] | IC50 [5] | IC50 [6] | IC50 [7] | Ki [7] | IC50 (Acetylcholinesterase)

O=C1OCCN1/N=C/c1ccc([N+](=O)[O-])o1 [FURAZOLIDONE]
Not Active: IC50 [1] | IC50 (Adenosine receptor A3) | IC50 [2] | IC50 (Mu-type opioid receptor) | IC50 (Estrogen receptor beta) | IC50 (D(4) dopamine receptor) | IC50 [3] | IC50 [4] | Ki [4] | IC50 [5] | IC50 [6] | IC50 [7] | Ki [7] | IC50 (Acetylcholinesterase)

CC[N+](CC)(CC)CCOc1cccc(OCC[N+](CC)(CC)CC)c1OCC[N+](CC)(CC)CC.[I-].[I-].[I-] [GALLAMINE TRIETHIODIDE]
Not Active: IC50 [1] | IC50 (Cytochrome P450 2D6) | Ki (Cytochrome P450 2D6) | IC50 (Adenosine receptor A3) | IC50 [2] | IC50 (Mu-type opioid receptor) | IC50 (Estrogen receptor beta) | IC50 (D(4) dopamine receptor) | IC50 [3] | IC50 [4] | Ki [4] | IC50 [5] | IC50 [6] | IC50 [7] | Ki [7] | IC50 (Acetylcholinesterase)

CNCCC=C1c2ccccc2CCc2ccccc21 [NORTRIPTYLINE]
Not Active: IC50 [1] | IC50 (Adenosine receptor A3) | IC50 [2] | IC50 (Mu-type opioid receptor) | IC50 (Estrogen receptor beta) | IC50 (D(4) dopamine receptor) | IC50 [3] | IC50 [4] | Ki [4] | IC50 [5] | IC50 [6] | IC50 [7] | Ki [7] | IC50 (Acetylcholinesterase)

CCCCOC(=O)c1ccc(N)cc1 [BUTAMBEN]
Not Active: IC50 [1] | IC50 (Adenosine receptor A3) | IC50 [2] | IC50 (Mu-type opioid receptor) | IC50 (Estrogen receptor beta) | IC50 (D(4) dopamine receptor) | IC50 [3] | IC50 [4] | Ki [4] | IC50 [5] | IC50 [6] | IC50 [7] | Ki [7] | IC50 (Acetylcholinesterase)

CC(C)NC[C@H](O)COc1cccc2[nH]ccc12
Not Active: IC50 [1] | IC50 (Adenosine receptor A3) | IC50 [2] | IC50 (Mu-type opioid receptor) | IC50 (Estrogen receptor beta) | IC50 (D(4) dopamine receptor) | IC50 [3] | IC50 [4] | Ki [4] | IC50 [6] | IC50 [7] | Ki [7] | IC50 (Acetylcholinesterase)

O=C(O)c1cn(C2CC2)c2cc(N3CCNCC3)c(F)cc2c1=O [CIPROFLOXACIN]
Not Active: IC50 [1] | IC50 (Adenosine receptor A3) | IC50 [2] | IC50 (Mu-type opioid receptor) | IC50 (Estrogen receptor beta) | IC50 (D(4) dopamine receptor) | IC50 [3] | IC50 [4] | Ki [4] | IC50 [5] | IC50 [6] | IC50 [7] | Ki [7] | IC50 (Acetylcholinesterase)

NCC(=O)O [GLYCINE]
Not Active: IC50 [1] | IC50 (Adenosine receptor A3) | IC50 [2] | IC50 (Mu-type opioid receptor) | IC50 (Estrogen receptor beta) | IC50 (D(4) dopamine receptor) | IC50 [3] | IC50 [4] | Ki [4] | IC50 [5] | IC50 [6] | IC50 [7] | Ki [7] | IC50 (Acetylcholinesterase)

C/C=C1\[C@H]2C=C(C)C[C@]1(N)c1ccc(=O)[nH]c1C2 [HUPERZINE A]
Not Active: IC50 [1] | IC50 (Cytochrome P450 2D6) | Ki (Cytochrome P450 2D6) | IC50 (Adenosine receptor A3) | IC50 [2] | IC50 (Mu-type opioid receptor) | IC50 (Estrogen receptor beta) | IC50 (D(4) dopamine receptor) | IC50 [3] | IC50 [4] | Ki [4] | IC50 [5] | IC50 [6] | IC50 [7] | Ki [7]
